Assay results: patent US10004732B2 (Novartis AG, priority 2014, dated 2018)
Where a name gives a salt, the structure may show the parent alone.

What was measured:
PI 3-kinase delta [1] = target: T1, PI 3-kinase delta (Homo sapiens, UniProt O00329); test: TR-FRET Adapta assay, assay F; settings: read-out: Assay F PI3Kδ IC50
[2] = Microsomal clearance assay (M); settings: intrinsic clearance in rat liver microsomes
Protocol: The experiments were performed in 96-well glass plates at 37° C. on an automated Tecan EVO platform. Test compounds at a concentration of 10 mM in pure DMSO were diluted 1:1000 in water to 10 μM. […] Reactions were initiated by the addition of 150 μL of a cofactor solution containing 2 mM NADPH.

Vps34 = Vps34 (Homo sapiens, UniProt Q8NEB9); test: Kinase Glo Luminescent Kinase Assay (Kglo), assay C; type: biochemical; settings: read-out: Assay C VPS34 IC50
PI 3-kinase beta [3] = target: T2, PI 3-kinase beta (Homo sapiens, UniProt P42338); test: Kinase Glo Luminescent Kinase Assay (Kglo), assay B; type: biochemical; settings: read-out: Assay B PI3Kβ IC50
Target sequence in this assay (P42338 whole entry): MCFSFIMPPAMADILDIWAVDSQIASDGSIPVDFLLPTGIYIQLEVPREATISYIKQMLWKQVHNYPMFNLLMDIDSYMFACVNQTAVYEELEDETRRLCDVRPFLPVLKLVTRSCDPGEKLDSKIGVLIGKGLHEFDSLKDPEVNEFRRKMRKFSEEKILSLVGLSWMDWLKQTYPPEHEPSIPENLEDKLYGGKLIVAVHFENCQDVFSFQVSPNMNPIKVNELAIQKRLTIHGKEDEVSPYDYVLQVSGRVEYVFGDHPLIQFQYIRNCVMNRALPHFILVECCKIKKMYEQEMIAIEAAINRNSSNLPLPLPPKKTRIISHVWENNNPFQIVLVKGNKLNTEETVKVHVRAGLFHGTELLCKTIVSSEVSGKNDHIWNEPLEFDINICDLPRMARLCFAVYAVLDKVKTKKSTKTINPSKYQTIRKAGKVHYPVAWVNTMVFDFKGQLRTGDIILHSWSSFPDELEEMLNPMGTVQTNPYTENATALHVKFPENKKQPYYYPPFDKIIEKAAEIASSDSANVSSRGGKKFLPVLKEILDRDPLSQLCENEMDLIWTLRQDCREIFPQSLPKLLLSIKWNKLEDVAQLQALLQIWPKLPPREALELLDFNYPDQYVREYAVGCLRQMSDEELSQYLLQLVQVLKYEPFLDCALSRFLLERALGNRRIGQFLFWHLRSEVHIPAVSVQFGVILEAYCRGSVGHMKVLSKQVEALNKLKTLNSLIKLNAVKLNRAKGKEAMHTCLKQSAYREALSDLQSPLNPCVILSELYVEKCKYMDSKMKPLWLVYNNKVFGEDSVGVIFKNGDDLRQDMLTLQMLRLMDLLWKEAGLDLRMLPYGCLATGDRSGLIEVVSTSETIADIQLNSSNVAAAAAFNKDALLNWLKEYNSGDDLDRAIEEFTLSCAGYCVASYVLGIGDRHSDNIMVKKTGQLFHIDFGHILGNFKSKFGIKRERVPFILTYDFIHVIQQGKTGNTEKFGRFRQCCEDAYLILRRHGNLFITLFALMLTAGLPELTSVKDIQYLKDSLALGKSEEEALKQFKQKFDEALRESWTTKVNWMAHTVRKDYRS
Target sequence in this assay (P27986 461-568 partner): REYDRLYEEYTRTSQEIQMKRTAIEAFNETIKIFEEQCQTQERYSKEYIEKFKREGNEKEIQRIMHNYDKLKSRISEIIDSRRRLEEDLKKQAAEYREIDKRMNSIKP

PI 4-kinase beta = PI 4-kinase beta (Homo sapiens, UniProt Q9UBF8); test: Kinase Glo Luminescent Kinase Assay (Kglo), assay D; type: biochemical; settings: read-out: Assay D PI4Kβ IC50
Sequence of PI 4-kinase beta (Q9UBF8 whole entry): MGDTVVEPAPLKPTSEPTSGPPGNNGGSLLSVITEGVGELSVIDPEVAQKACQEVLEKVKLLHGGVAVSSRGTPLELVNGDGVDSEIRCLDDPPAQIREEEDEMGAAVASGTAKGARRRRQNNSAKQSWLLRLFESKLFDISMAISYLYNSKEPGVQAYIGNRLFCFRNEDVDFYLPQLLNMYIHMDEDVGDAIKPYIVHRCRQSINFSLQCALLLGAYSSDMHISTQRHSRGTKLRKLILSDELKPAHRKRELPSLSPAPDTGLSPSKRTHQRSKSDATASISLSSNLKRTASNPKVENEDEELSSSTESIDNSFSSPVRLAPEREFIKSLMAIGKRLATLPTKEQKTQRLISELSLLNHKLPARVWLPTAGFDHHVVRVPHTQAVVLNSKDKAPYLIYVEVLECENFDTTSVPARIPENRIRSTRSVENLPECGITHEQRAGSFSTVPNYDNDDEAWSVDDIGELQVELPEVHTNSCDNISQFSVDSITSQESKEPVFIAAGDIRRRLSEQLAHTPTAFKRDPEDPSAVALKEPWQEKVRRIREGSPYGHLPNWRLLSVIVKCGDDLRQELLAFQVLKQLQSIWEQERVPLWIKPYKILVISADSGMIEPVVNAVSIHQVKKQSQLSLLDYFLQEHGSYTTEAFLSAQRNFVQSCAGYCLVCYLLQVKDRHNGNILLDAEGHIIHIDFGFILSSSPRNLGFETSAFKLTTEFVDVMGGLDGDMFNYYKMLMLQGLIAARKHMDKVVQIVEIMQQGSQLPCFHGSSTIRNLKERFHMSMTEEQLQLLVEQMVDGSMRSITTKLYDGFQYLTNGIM

PI 3-kinase alpha [4] = target: T3, PI 3-kinase alpha (Homo sapiens, UniProt P42336); test: Kinase Glo Luminescent Kinase Assay (Kglo), assay A; type: biochemical; settings: read-out: Assay A PI3Kα IC50
Target sequence in this assay (P42336 whole entry): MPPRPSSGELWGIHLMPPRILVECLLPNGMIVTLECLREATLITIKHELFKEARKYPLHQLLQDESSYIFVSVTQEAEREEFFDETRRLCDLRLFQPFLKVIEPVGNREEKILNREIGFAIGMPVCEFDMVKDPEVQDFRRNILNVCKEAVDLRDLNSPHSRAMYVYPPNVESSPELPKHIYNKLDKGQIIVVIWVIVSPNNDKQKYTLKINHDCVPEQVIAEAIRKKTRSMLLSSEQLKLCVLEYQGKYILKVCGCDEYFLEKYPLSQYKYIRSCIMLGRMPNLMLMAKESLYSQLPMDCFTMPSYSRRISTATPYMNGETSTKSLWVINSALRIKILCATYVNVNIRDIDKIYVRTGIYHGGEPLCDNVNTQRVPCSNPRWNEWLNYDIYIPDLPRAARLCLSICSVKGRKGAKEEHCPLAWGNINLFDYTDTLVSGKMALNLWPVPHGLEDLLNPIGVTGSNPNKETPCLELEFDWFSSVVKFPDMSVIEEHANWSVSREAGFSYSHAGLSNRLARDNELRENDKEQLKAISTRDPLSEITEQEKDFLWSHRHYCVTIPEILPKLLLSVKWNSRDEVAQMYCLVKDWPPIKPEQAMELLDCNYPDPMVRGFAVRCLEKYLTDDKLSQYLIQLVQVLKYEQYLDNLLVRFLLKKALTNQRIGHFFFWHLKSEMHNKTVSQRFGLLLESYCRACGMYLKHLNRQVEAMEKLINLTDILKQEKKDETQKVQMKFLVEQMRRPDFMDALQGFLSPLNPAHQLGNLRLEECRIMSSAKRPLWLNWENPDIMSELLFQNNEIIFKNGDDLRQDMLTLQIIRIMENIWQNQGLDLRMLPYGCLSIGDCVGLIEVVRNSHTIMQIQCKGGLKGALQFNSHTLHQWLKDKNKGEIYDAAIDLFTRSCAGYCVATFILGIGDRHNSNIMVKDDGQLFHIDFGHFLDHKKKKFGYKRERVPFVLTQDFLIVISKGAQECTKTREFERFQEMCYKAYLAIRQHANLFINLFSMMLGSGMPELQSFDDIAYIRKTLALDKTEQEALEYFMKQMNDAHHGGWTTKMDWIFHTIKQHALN

PI 3-kinase gamma [5] = target: T4, PI 3-kinase gamma (Homo sapiens, UniProt P48736); test: Cellular U937 AKT assay K2 (HTRF); type: cell-based; settings: U937 cells, K2 format; read-out: Assay K2 PI3Kγ IC50
PI 3-kinase gamma [6] = target: T4, PI 3-kinase gamma; test: TR-FRET Adapta assay, assay E; type: biochemical; settings: read-out: Assay E PI3Kγ IC50
PI 3-kinase beta [7] = target: T2, PI 3-kinase beta; test: Cellular assay I1, p-Akt (S473) in Rat-1 cells, Surefire format; type: cell-based; settings: non-asterisked data: version I1 (Surefire format), Rat-1 cells; read-out: Assay I PI3Kβ IC50
Target sequence in this assay (P42338 whole entry): as the sequence (P42338 whole entry) above
Target sequence in this assay (Q63787 whole entry partner): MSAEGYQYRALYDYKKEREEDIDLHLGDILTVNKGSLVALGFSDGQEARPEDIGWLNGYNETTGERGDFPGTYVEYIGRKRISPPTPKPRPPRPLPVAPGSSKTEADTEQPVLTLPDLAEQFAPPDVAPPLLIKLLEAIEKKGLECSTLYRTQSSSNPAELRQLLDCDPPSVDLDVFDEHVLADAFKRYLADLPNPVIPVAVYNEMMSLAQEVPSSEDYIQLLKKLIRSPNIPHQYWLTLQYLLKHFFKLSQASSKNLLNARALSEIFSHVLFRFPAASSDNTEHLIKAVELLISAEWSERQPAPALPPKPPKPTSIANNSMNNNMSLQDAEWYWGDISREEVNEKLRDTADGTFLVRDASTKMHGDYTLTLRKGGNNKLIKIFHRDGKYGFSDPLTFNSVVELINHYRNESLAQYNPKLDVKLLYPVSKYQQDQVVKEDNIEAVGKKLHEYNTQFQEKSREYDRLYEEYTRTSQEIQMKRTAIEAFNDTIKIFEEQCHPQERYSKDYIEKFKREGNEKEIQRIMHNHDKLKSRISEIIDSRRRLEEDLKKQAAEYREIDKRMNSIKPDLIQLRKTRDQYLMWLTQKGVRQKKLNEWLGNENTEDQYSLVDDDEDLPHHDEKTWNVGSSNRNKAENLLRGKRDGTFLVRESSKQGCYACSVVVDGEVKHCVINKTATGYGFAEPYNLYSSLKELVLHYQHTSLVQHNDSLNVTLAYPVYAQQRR

PI 3-kinase delta [8] = target: T1, PI 3-kinase delta; test: Cellular assay J1, p-Akt (S473) in Rat-1 cells, Surefire format; type: cell-based; settings: non-asterisked data: version J1 (Surefire format), Rat-1 cells; read-out: Assay J PI3Kδ IC50
Target sequence in this assay (O00329 whole entry): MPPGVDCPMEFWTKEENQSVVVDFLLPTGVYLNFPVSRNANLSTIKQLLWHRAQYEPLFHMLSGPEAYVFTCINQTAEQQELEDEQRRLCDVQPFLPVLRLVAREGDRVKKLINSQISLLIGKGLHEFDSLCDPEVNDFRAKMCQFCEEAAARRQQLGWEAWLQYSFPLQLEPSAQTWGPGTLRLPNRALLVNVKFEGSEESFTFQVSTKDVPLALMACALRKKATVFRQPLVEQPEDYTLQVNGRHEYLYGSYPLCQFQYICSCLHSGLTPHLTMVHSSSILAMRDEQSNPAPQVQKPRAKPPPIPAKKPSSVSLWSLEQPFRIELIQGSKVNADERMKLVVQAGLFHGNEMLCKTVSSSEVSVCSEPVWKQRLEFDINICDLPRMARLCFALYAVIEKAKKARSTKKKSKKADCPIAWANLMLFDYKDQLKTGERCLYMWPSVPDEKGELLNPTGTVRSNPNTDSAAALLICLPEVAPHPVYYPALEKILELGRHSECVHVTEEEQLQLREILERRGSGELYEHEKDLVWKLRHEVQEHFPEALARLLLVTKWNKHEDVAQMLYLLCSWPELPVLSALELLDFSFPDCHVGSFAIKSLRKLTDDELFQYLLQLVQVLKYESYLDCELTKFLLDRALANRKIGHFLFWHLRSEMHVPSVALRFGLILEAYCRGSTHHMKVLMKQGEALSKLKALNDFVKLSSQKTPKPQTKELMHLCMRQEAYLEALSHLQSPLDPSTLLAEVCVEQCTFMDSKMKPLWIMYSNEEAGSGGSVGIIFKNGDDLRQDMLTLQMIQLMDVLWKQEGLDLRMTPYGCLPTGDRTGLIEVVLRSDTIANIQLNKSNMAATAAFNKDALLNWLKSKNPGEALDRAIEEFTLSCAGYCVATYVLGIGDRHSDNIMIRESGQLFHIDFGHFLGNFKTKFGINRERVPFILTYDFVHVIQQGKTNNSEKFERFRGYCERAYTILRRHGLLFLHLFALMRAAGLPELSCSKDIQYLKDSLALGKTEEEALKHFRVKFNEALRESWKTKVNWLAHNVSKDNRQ
Target sequence in this assay (Q63787 whole entry partner): as the sequence (Q63787 whole entry partner) above

[9] = test system: IL-8-induced neutrophil shape change in human whole blood; test: Whole blood neutrophil shape change assay (L); type: cell-based; settings: Homo sapiens, Neutrophil, IL-8, human whole blood, read-out: Assay L WBSC IC50
Protocol: Whole Blood Neutrophil Shape Change Assay (L)
IL-8 was made up to 2 μM stocks in 0.1% bovine serum albumin/PBS and stored at −80° C. On the day IL-8 was diluted in PBS (phosphate buffered saline) 10 minutes before use. IL-8 was used at final concentration of 2 nM and a concentration range from 0.003 to 200 nM for the donor dose response curve.
Assay fixative solution was prepared fresh each day from 10× concentrated CellFIX™ solution diluted 1:10 in sterile distilled water and then 1:4 with PBS. Assay fixative solution was kept on ice prior to use.
A 10× lysis buffer was prepared in advance by dissolving 20.75 g NH4Cl and 2.5 g KHCO3 in 250 ml sterile H2O. This 10× lysis buffer was filtered under sterile conditions and stored for up to two weeks at 4° C. On the day a 1× lysis solution was prepared with sterile distilled H2O and kept on ice prior to use.
The test compounds were prepared as 10 mM stock solutions in 100% DMSO and were stored at 4° C. Once in use for an assay 10 mM stock compounds were thawed and stored at RT protected from light. Compound dilutions were prepared fresh on the day. The first series of dilutions in 100% DMSO were done first thing in the morning. Only once blood had been collected and arrived in laboratory was the next set of dilutions into PBS carried out (1:10 PBS, 10% DMSO). This limited the exposure of diluted compound to plastic and made sure the exposure timing was consistent between assays.
Compound dilutions in 100% DMSO were prepared as described previously. Human whole blood was collected in K2 EDTA Vacutainers. Once blood was in the laboratory, compound dilutions into PBS were carried out as described previously and depicted in Table 1.
The outer wells of the deep well assay plate were filled with 1200 μl of sterile distilled H2O in an effort to limit edge effects (rows A1-H1, A1-A12, A12-H12).
An IL-8 dose response was determined for each blood donor examined, to monitor the donor response to IL-8. At this step in assay preparation for the IL-8 dose response samples 10 μl of PBS was added to designated wells. In addition the assay window without DMSO was also assessed each day. For such samples at this step in assay preparation 10 μl of PBS was added in the place of 10% DMSO.
Lids were placed on the 96 well plates and samples were incubated for 15 minutes at 37° C. in a water-bath.
Following the compound pre-incubation 10× final IL-8 was added to appropriate wells (10 μl of 20 nM working stock IL-8, final IL-8 concentration in blood=2 nM) and 10 μl of PBS was added to the un-stimulated controls. 10× final dose response range IL-8 was also added to designated wells (final concentration range on assay plate was 200 nM to 0.0005 nM, 1:5 serial dilution in PBS). The IL-8 and PBS were added to appropriate wells across all assay plates in the same sequence as the blood to compound addition. […] Samples were incubated for 5 minutes at 37° C. in a water-bath. Following the incubation sample plates were transferred to ice where 250 μl of chilled Assay Fixative Buffer was added promptly to all wells.
Samples were incubated on ice for 7 minutes (no mixing). […] Once added samples were mixed once and incubated on ice for 30 minutes to achieve uniform red blood cells lysis. After lysis, 200 μl of sample was transferred to a 96 well microplate on ice. […] Granulocytes were identified based on differential side scatter (SSC) and forward scatter (FSC) characteristics.

mTOR = mTOR (Homo sapiens, UniProt P42345); test: Lanthascreen kinase binding assay, assay G; settings: read-out: Assay G mTOR IC50
Protocol: Lanthascreen™ Kinase Binding Assay for mTOR (G)
Binding of an inhibitor to the kinase competes for binding with the tracer, resulting in a loss of FRET.
50 nL of compound dilutions were dispensed onto white 384-well small volume polystyrene plate.

PI 3-kinase alpha [10] = target: T3, PI 3-kinase alpha; test: Cellular assay H1, p-Akt (S473) in Rat-1 cells, Surefire format; type: cell-based; settings: non-asterisked data: version H1 (Surefire format), Rat-1 cells; read-out: Assay H PI3Kα IC50
Target sequence in this assay (P42336 whole entry): as the sequence (P42336 whole entry) above
Target sequence in this assay (Q63787 whole entry partner): as the sequence (Q63787 whole entry partner) above
Description: Cellular Assays for PI 3-Kinase Alpha (H1), Beta (I1) and Delta (J1): Surefire Format
AlphaScreen (Amplified Luminescent Proximity Homogeneous Assay, ALPHA, Perkin Elmer) is a non-radioactive bead-based proximity assay technology to study biomolecular interactions in a homogenous microtiter plate format. The brand name SureFire denotes AlphaScreen assays that are adapted to quantify the phosphorylation of endogenous cellular proteins in cell lysates, by using matched antibody pairs, which consist of an anti-phospho-kinase and an anti-kinase antibody. The assay allows characterization of kinase signaling in cells as well as measurement of kinase inhibitor effects.
Using Rat-1 cells stably expressing myr-HA-tagged versions of the human PI3Kdelta, PI3Kalpha, or PI3Kbeta p110 catalytic subunit isoforms, the assay was developed as a two-plate protocol in a 384-well format.
For compound testing, the cells were seeded at a density of 4000 (Rat-1_PI3Kdelta), 7500 (Rat-1_PI3Kalpha), or 6200 (Rat-1_PI3Kbeta) cells in 20 μl complete growth medium into cell culture treated 384-well plates and were grown at 37° C./5% CO2/90% humidity for 24 h. Shortly before compound transfer, the complete medium was removed, 30 μl assay buffer (DMEM high glucose, 1×MEM NEAA, 10 mM HEPES, 2 mM L-glutamine, 0.1% (w/v) BSA) was added and 10 μl of the compound predilutions were transferred to the cells.

PI 3-kinase gamma [11] = target: T4, PI 3-kinase gamma; test: Cellular U937 AKT assay K1 (MSD); type: cell-based; settings: U937 cells, K1 format; read-out: Assay K1 PI3Kγ IC50

Row | IC50 (PI 3-kinase delta [1]) [nM] | Assay M RLM CI(int) [2] [µL/min/mg] | IC50 (Vps34) [nM] | IC50 (PI 3-kinase beta [3]) [nM] | IC50 (PI 4-kinase beta) [nM] | IC50 (PI 3-kinase alpha [4]) [nM] | IC50 (PI 3-kinase gamma [5]) [nM] | IC50 (PI 3-kinase gamma [6]) [nM] | IC50 (PI 3-kinase beta [7]) [nM] | IC50 (PI 3-kinase delta [8]) [nM] | IC50 [9] [nM] | IC50 (mTOR) [nM] | IC50 (PI 3-kinase alpha [10]) [nM] | IC50 (PI 3-kinase gamma [11]) [nM] | SMILES
1 | 100 | 78 | 1600 | 240 | 1600 | 40 | 494 | 13 |  |  |  |  |  |  | Cc1ncc(-c2nc(-c3cc(S(=O)(=O)NC4CCOCC4)ccc3C)cnc2N)s1 [Example 45.3, 3-(5-Amino-6-(2-methylthiazol-5-yl)pyrazin-2-yl)-4-methyl-N-(tetrahydro-2H-pyran-4-yl)benzenesulfonamide]
2 | 180 | 62 | > 9100 | 2830 | 7010 | 150 |  | 12 | 4520 | 1200 | 735 | 5110 | 1630 | 65 | Cc1ccc(S(=O)(=O)NCCC(C)(C)O)cc1-c1cnc(N)c(-c2cnn(CC(F)(F)F)c2)n1 [Example 130, 3-(5-Amino-6-(1-(2,2,2-trifluoroethyl)-1H-pyrazol-4-yl)pyrazin-2-yl)-N-(3-hydroxy-3-methylbutyl)-4-methylbenzenesulfonamide]
3 | 390 | 64 | > 9100 | 1830 | > 9100 | 350 |  | 15 | 5380 | 2000 | 803 | > 9100 | 2260 | 177 | Cc1ccc(S(=O)(=O)NCC(C)(C)CO)cc1-c1cnc(N)c(-n2cncn2)n1 [Example 73, 3-(5-Amino-6-(1H-1,2,4-triazol-1-yl)pyrazin-2-yl)-N-(3-hydroxy-2,2-dimethylpropyl)-4-methylbenzenesulfonamide]
4 | 130 | 8 | > 10000 | 6000 | 7600 | 280 |  | 100 | 3470 | 230 | 879 | > 10000 | 2810 | 51 | Cc1ccc(S(=O)(=O)NOCC(C)(C)O)cc1-c1cnc(N)c(-c2cn(C)nc2C)n1 [Example 125, 3-(5-Amino-6-(1,3-dimethyl-1H-pyrazol-4-yl)pyrazin-2-yl)-N-(2-hydroxy-2-methylpropoxy)-4-methylbenzenesulfonamide]
5 | 1190 | 17 | 7830 | 3700 | 5900 | 290 |  | 44 | > 3000 | 7990 | 499 | > 9100 | 5430 | 177 | Cc1cc(F)c(S(=O)(=O)NCCCO)cc1-c1cnc(N)c(-c2cnn(C)c2)n1 [Example 114, 5-(5-Amino-6-(1-methyl-1H-pyrazol-4-yl)pyrazin-2-yl)-2-fluoro-N-(3-hydroxypropyl)-4-methylbenzenesulfonamide]
6 | 1200 |  | > 9100 | > 9100 | > 9100 | 2100 | > 10000 | 89 |  |  |  | > 9100 |  |  | Cc1cc(-c2nc(-c3cc(S(=O)(=O)NC[C@@H]4CCNC4)ccc3C)cnc2N)ccn1 [Example 129.35, (R)-3-(5-amino-6-(2-methylpyridin-4-yl)pyrazin-2-yl)-4-methyl-N-(pyrrolidin-3-ylmethyl)benzenesulfonamide]
7 | 70 | 60 | > 10000 | 870 | 6650 | 210 |  | 47 | > 10000 | 1020 | 562 | 7400 | > 10000 | 58 | CCN1CCC[C@@H]1CNS(=O)(=O)c1ccc(C)c(-c2cnc(N)c(-c3cn(C)nc3C)n2)c1 [Example 27, 3-[5-Amino-6-(1,3-dimethyl-1H-pyrazol-4-yl)-pyrazin-2-yl]-N—((R)-1-ethyl-pyrrolidin-2-ylmethyl)-4-methyl-benzenesulfonamide hydrochloride]
8 | 590 | 34 | > 10000 | 900 | 8300 | 220 |  | 10 | 8250 | 1920 | 166 | 6100 | 2800 | 51 | Cc1ccc(S(=O)(=O)NCC2(C)COC2)cc1-c1cnc(N)c(-c2cn(C)nc2C)n1 [Example 17, 3-[5-Amino-6-(1,3-dimethyl-1H-pyrazol-4-yl)-pyrazin-2-yl]-4-methyl-N-(3-methyl-oxetan-3-ylmethyl)-benzenesulfonamide]
9 | 110 | 79 | > 9100 | 7850 | 3740 | 160 |  | 7 | 6990 | 1240 | 1660 | 2230 | 2830 | 46 | Cc1ccc(S(=O)(=O)NCCC(C)(C)O)cc1-c1cnc(N)c(-c2cnn(C(C)C)c2)n1 [Example 119.31]
10 | 320 | 67 | 2000 | 590 | 3300 | 90 | 317 | 130 |  |  |  |  |  |  | Cc1ncc(-c2nc(-c3cc(S(=O)(=O)N4CC(CO)C4)ccc3C)cnc2N)s1 [Example 45.8, (1-((3-(5-Amino-6-(2-methylthiazol-5-yl)pyrazin-2-yl)-4-methylphenyl)sulfonyl)azetidin-3-yl)methanol]
11 | 60 | 43 | > 9100 | 6060 | > 9100 | 200 |  | 7 | 6250 | 660 | 561 | 7910 | 1060 | 53 | Cc1ccc(S(=O)(=O)N[C@H]2CC[C@H](O)CC2)cc1-c1cnc(N)c(-c2nc(C3CC3)no2)n1 [Example 24, Trans-3-[5-Amino-6-(3-cyclopropyl-[1,2,4]oxadiazol-5-yl)-pyrazin-2-yl]-N-(4-hydroxy-cyclohexyl)-4-methyl-benzene sulfonamide]
12 | 190 | 21 | 6230 | 3790 | 6610 | 390 |  | 22 | 3700 | 2350 | 1240 | > 9100 | 4010 | 81 | Cc1ccc(S(=O)(=O)NCCC(C)(C)O)cc1-c1cnc(N)c(-c2cnn(C)c2)n1 [Example 119.16]
13 | 580 | 17 | > 9100 | 6480 | > 9100 | 320 |  | 57 | > 10000 | > 10000 | 1270 | > 9100 | > 10000 | 329 | Cc1cn(-c2nc(-c3cc(S(=O)(=O)NCCCO)ccc3C)cnc2N)cn1 [Example 57, 3-(5-Amino-6-(4-methyl-1H-imidazol-1-yl)pyrazin-2-yl)-N-(3-hydroxypropyl)-4-methylbenzenesulfonamide]
14 | 570 | 233 | > 10000 | 1500 | > 10000 | 3500 |  | 91 | 1540 | 800 | 1210 | > 10000 | 6560 | 359 | CCN1CCC[C@@H]1CNS(=O)(=O)c1ccc(C)c(-c2cnc(N)c(-n3cncn3)n2)c1 [Example 127.12]
15 | 90 | 82 | > 9100 | 7160 | > 9100 | 240 |  | 16 | 6380 | 840 | 817 | 8820 | 1110 | 51 | CCCc1noc(-c2nc(-c3cc(S(=O)(=O)N[C@H]4CC[C@H](O)CC4)ccc3C)cnc2N)n1 [Example 140, Trans-3-[5-Amino-6-(3-propyl-[1,2,4]oxadiazol-5-yl)-pyrazin-2-yl]-N-(4-hydroxy-cyclohexyl)-4-methyl-benzene sulfonamide]
